Consider five molecules from ChEMBL document CHEMBL1201862, “PubChem BioAssay data set” (2004).

Activity calls are given as the source filed them.

The subject of one assay is J774.A1. The experiment in a line: Confirmation of image-based Screening Assay for Inhibitors of Phagocytosis. [Related pubchem assays (depositor defined):AID1029, AID1643]. The assay is classed as functional, cell-based. Conditions: Mus musculus.
In assay [1] the target is T1, Heat shock factor protein 1 (Mus musculus, UniProt P38532).
T1 sequence (P38532 whole entry): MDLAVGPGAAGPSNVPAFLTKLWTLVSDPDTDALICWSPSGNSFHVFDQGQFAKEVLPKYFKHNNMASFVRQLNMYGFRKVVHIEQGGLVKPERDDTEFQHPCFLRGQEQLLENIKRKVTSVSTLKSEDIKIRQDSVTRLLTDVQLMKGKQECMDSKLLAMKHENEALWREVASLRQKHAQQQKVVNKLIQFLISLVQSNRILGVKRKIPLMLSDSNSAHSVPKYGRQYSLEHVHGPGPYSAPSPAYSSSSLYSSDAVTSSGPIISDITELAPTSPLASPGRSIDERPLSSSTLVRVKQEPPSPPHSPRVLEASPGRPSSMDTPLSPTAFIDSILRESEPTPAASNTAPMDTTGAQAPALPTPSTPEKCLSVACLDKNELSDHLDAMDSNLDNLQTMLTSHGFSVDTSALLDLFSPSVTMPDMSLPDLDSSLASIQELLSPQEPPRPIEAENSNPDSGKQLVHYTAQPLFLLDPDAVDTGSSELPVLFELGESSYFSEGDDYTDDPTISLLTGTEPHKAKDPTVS
Nature of the assay: decrease of HSF1-responsive luciferase luminescence – cell-based, NIH3T3, dose retest, confirmation (AID 2382).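 Also: NIH3T3 fibroblasts with HSF1-driven luciferase reporter stressed by proteasome inhibitor MG132; luminescence from HSF1-driven luciferase expression after 8 hours of MG132 stress.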 Format: functional.

The nature of assay [2]: HGIII-sPLA2 enzyme inhibition potency – biochemical, QFRET, IC50, dose response (AID 743457).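 Also: green fluorescence rise as the enzyme cleaves BODIPY PC-A2 in liposomes.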
Assay [3] can be described thus: luciferase reporter signal suppression in cells – H4 neuroglioma cells, luminescence, dose response (AID 1990). Format: functional, cell-based. (In general: A reporter such as luciferase makes a cellular process visible.)
In assay [4] the test system is BJ. Nature of the assay: BJ-TERT fibroblast viability loss – cell-based, RAS-independent, luminescence, dose response (AID 1933). The assay is classed as functional. The conditions noted are these: Homo sapiens.
Assay [5] has as its system BJ. The experiment in a line: BJ-TERT-LT-ST fibroblast viability loss – cell-based, RAS-independent, luminescence, dose response (AID 1935).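 Also: BJ fibroblasts immortalized with TERT plus LT and ST oncogenes.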 The conditions noted are these: Homo sapiens. Format: functional.
The nature of assay [6]: Luminescence Cell-Based Dose Response HTS to Identify Inhibitors of 5'UTR Stem-Loop Driven Prion Protein mRNA Translation in H4 Neuroglioblastoma Cells. [Related pubchem assays: 1827 (Project Summary), 1813 (Primary HTS)]. The assay is classed as functional.
Assay [7] in a line: DRD fibroblast viability loss – cell-based, non-viral oncogenic, luminescence, dose response (AID 1934). Conditions: Homo sapiens. Format: functional.
In assay [8] the test system is BJ. Nature of the assay: cells. The assay is classed as functional, cell-based. Conditions: Homo sapiens.
Assay [9] in a line: alpha-synuclein stem-loop luciferase translation blockers – H4 neuroglioma cells, luminescence, confirmation (AID 1988). Format: functional, cell-based.
The nature of assay [10]: reduction of Shn3 3'UTR-driven luciferase in osteoblasts – cell-based, Clone20 osteoblasts, firefly luciferase, cherry-picked, dose response (AID 624132).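 Also: firefly luciferase luminescence from reporter carrying the Shn3 3'UTR in osteoblasts.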 Format: functional.
Assay [11] concerns the target Neurotensin receptor type 1 (Homo sapiens, UniProt P30989). The assay is classed as functional.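 Also: Image-based confirmatory dose-response assay measuring agonist activity at NTR1; NTR1-expressing U2OS osteosarcoma cells imaged for beta-arrestin GFP spot formation; agonist potency where compounds increase beta-arrestin recruitment.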
The nature of assay [12]: non-specific 3'UTR reporter inhibition in Clone20-Shn3RL – cell-based, Renilla luciferase, cherry-picked, counter-screen for Shn3 inhibitor project, dose response (AID 624133). The assay is classed as functional. In general terms: The purpose of a counterscreen is to sort out artefacts and off-target activity.
For assay [13], the target named is T2, Replicative DNA helicase DnaB (Mycobacterium tuberculosis, UniProt P9WMR3).
T2 sequence (P9WMR3 whole entry): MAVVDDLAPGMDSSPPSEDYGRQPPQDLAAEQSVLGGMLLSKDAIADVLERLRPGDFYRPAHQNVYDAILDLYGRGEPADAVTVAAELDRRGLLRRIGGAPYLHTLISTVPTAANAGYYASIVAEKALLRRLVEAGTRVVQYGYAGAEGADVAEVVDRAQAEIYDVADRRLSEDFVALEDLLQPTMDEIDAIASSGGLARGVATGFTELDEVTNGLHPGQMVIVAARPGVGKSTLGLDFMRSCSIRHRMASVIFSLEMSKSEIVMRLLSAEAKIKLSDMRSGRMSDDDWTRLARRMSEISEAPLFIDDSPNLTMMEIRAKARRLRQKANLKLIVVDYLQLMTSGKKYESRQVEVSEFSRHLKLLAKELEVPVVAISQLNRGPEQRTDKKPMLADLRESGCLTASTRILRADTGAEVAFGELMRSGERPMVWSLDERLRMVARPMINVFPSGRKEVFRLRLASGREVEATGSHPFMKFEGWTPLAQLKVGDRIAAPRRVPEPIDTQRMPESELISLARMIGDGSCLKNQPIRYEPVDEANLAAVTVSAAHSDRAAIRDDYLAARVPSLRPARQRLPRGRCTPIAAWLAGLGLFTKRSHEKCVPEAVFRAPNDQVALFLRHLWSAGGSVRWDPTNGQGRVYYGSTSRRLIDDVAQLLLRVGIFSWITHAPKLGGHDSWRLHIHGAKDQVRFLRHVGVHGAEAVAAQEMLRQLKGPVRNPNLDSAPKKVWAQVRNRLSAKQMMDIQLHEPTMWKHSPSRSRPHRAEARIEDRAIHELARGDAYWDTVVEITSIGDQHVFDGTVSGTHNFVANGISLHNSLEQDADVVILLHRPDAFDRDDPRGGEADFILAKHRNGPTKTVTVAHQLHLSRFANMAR
The experiment in a line: DnaB intein splicing inhibitors, dose response, biochemical, cell-free fluorescence (AID 449749). The assay is classed as functional.

The next assay has as its target T3, Protein RecA (Mycobacterium tuberculosis, UniProt P9WHJ3).
T3 sequence (P9WHJ3 whole entry): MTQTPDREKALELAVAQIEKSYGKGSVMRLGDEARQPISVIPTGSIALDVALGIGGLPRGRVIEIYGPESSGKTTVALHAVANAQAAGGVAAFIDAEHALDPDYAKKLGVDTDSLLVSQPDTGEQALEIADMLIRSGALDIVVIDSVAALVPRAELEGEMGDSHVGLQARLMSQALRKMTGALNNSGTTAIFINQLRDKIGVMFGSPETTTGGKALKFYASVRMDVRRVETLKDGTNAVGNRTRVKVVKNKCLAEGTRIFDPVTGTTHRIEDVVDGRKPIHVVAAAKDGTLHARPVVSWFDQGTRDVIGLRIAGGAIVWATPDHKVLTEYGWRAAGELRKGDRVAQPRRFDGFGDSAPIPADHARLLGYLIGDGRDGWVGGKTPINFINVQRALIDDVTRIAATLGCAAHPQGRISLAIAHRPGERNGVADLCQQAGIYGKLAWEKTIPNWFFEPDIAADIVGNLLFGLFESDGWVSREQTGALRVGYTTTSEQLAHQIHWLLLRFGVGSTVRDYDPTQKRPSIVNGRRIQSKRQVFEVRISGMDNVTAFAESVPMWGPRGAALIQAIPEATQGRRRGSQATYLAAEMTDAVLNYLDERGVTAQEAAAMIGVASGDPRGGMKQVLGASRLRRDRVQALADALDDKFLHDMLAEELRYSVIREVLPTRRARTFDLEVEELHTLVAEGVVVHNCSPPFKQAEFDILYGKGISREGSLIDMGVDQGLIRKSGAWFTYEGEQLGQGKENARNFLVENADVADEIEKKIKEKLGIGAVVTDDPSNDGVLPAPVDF
The experiment in a line: Fluorescence Cell-Free Homogeneous Dose Retest to Identify Inhibitors of RecA-Intein Splicing Activity. [Related pubchem assays (depositor defined):AID2097, AID2223, AID489010, AID492950]. The assay is classed as functional.

Assay [14] in a line: loss of viability in HepG2 cells – cell-based, CellTiter-Glo, cherry-picked, cytotoxicity control for Shn3 inhibitor project, dose response (AID 624134). Format: functional. Background: In ATP-based viability assays light output follows the ATP content of the culture.
The target in assay [15] is T4, Histone-lysine N-methyltransferase NSD2 (Homo sapiens, UniProt O96028).
T4 sequence (O96028 whole entry): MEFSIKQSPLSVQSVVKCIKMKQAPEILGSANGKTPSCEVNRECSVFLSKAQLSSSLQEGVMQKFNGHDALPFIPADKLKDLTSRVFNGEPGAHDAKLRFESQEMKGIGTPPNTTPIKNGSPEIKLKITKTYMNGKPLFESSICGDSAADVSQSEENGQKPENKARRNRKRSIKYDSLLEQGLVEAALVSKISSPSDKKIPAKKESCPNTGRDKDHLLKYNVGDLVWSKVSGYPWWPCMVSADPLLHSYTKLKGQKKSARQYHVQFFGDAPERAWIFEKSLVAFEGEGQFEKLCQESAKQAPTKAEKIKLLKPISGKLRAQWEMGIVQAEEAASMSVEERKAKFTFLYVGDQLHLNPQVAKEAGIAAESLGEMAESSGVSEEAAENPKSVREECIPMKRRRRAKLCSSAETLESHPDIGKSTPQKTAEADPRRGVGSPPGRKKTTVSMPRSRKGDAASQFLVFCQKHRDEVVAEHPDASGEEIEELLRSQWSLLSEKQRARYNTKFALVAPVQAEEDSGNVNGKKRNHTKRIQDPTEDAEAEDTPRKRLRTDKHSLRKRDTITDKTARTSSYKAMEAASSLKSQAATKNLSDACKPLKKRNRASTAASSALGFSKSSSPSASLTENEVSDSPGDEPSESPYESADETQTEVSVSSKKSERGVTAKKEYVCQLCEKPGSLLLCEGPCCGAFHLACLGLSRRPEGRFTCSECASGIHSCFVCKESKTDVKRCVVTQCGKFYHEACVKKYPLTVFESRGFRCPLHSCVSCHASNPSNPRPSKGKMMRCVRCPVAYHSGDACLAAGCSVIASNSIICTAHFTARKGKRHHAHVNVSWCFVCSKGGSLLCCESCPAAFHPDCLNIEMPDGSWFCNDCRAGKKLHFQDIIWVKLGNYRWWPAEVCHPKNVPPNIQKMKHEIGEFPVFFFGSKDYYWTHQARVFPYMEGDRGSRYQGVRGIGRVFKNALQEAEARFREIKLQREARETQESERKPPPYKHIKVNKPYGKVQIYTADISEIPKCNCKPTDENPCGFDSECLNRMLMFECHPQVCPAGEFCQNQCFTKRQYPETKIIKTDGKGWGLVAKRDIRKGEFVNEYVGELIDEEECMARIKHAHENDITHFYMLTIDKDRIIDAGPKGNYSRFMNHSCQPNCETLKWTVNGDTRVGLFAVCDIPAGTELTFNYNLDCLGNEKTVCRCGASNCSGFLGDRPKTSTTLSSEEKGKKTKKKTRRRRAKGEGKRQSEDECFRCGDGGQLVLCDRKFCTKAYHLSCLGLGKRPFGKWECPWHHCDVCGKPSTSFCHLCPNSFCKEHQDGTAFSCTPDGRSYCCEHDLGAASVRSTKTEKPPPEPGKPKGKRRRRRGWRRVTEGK
The assay is classed as biochemical.

The target in assay [16] is T5, SUMO-activating enzyme (Homo sapiens, UniProt Q9UBT2). Nature of the assay: blockers of SAE1/SAE2–UBC9 SUMO transfer – biochemical, HTRF, uHTS, primary screen (AID 2006). The assay is classed as protein-complex assay.
T5 sequence (Q9UBE0 whole entry): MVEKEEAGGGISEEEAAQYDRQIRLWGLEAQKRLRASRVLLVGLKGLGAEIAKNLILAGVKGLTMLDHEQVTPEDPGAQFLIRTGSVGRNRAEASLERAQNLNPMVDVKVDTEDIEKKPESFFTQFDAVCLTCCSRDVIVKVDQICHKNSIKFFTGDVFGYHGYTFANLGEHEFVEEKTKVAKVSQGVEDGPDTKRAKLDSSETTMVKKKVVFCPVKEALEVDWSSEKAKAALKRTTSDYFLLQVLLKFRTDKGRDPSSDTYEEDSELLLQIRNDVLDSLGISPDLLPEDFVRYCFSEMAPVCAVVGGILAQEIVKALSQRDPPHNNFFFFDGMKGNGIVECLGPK
T5 sequence (Q9UBT2 whole entry): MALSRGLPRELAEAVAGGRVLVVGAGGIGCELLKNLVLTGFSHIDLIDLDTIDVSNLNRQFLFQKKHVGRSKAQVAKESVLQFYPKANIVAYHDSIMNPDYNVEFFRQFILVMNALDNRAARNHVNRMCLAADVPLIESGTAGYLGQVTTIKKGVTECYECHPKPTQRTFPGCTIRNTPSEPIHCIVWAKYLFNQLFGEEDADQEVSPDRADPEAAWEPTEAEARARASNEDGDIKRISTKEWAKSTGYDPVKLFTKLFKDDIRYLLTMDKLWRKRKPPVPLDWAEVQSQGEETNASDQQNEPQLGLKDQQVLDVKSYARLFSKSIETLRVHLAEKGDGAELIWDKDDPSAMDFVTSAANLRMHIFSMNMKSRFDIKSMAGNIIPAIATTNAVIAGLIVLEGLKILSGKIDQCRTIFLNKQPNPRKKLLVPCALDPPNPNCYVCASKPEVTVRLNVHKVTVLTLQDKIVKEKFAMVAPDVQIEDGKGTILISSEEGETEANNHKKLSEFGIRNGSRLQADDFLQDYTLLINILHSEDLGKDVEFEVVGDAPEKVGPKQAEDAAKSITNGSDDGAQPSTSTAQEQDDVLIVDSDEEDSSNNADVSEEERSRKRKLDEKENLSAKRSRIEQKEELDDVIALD
The target in assay [17] is T5, SUMO-activating enzyme. The experiment in a line: blockers of UBC9-mediated SUMO conjugation – biochemical, AlphaScreen, SUMOylation inhibitor project, confirmation (AID 2018). Format: functional.
Assay [18] has as its target T6, DNA dC->dU-editing enzyme APOBEC-3A (Homo sapiens, UniProt P31941). The experiment in a line: A3A deaminase inhibition for selectivity – biochemical, dose response (AID 504722). Format: functional.
For assay [19], the target named is T7, DNA dC->dU-editing enzyme APOBEC-3G (Homo sapiens, UniProt Q9HC16). Nature of the assay: Dose Response confirmation of small molecule APOBEC3G DNA Deaminase Inhibitors via a fluorescence-based single-stranded DNA deaminase assay. [Related pubchem assays (depositor defined):AID493012, AID493028]. The assay is classed as functional.
T7 sequence (Q9HC16 whole entry): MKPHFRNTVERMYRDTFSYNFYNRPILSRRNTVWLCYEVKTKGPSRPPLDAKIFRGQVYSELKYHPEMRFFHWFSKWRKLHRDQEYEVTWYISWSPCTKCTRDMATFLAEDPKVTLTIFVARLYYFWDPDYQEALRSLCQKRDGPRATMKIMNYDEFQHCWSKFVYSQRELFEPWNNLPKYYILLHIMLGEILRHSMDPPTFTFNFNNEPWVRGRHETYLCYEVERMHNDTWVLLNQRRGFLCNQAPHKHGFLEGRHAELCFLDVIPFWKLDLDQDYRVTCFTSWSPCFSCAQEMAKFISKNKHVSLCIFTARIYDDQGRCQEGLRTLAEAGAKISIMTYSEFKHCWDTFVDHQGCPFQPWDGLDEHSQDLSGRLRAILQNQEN
Assay [20] deals with T6, DNA dC->dU-editing enzyme APOBEC-3A. The experiment in a line: Dose Response confirmation of small molecule APOBEC3A DNA Deaminase Inhibitors via a fluorescence-based single-stranded DNA deaminase assay. [Related pubchem assays (depositor defined):AID493011, AID493024]. Format: functional.
The target in assay [21] is T7, DNA dC->dU-editing enzyme APOBEC-3G. Format: functional.

T6 sequence (P31941 whole entry): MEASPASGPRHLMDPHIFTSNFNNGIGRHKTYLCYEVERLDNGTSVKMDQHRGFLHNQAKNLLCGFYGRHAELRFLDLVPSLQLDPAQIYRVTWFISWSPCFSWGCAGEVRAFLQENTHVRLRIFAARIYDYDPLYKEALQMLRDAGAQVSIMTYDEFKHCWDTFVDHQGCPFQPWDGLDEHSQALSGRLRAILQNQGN
Chain of Neurotensin receptor type 1 (P30989 whole entry): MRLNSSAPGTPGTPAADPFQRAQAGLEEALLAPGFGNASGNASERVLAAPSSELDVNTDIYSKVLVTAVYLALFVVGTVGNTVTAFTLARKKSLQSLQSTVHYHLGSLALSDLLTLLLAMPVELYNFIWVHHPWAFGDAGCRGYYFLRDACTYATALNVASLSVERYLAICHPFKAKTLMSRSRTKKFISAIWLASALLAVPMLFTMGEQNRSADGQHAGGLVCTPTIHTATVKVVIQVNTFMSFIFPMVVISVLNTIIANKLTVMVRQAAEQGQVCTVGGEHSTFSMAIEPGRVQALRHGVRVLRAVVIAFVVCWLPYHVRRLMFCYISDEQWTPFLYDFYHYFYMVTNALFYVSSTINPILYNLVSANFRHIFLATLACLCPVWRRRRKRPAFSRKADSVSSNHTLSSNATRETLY

Usually IC50 stands for the point on the concentration scale where inhibition reaches its midpoint. In general, EC50 refers to the midpoint of the concentration-response curve. Consider `CCOc1cc(CNc2ccc3c(c2)OCCO3)cc(Br)c1OCC`, for which the half-inhibitory concentration (IC50) with J774.A1 was 2.51 µM (active); in [2], > 122 µM (inactive). The EC50 was 2.48 µM (active) in assay [1]; 8.47 µM (inconclusive) in assay [3]; 1.85 µM (active) with BJ [4]; 2.43 µM (inconclusive) with BJ [5]; > 120 µM (not active) in [6]; 1.6 µM (active) in assay [7]. Also, the values for the EC50 (in the assay on BJ [8]; in assay [9]) were 15.6 µM (active) and 1.58 µM (active), respectively.
The AC50 is the midpoint of the concentration-response curve, whichever way the signal moves. For `CC(CCc1ccccc1)NC(=O)COC(=O)c1ccc(S(C)(=O)=O)c([N+](=O)[O-])c1` (stereo not drawn), the AC50 in [10] is 3.34 µM (active); in assay [12], 9.93 µM (active); in assay [13], 10 µM (active); in assay [14], 39.4 µM (active). Besides, the half-maximal effective concentration (EC50) in [11] is 9.29 µM (active); at Protein RecA it was 3.7 µM (active).
On to `COc1cc2c(C#N)c(N3CCCC3)nc(N)c2c(N)n1`, for which, in assay [15], the AC50 is 9.62 µM (active). Moreover, the figures for the IC50 at SUMO-activating enzyme [16] and on SUMO-activating enzyme [17] were 3.79 µM (active) and 5.34 µM (active), respectively.
Consider `Cc1cc(-c2nnc(S)n2/N=C/C=C/c2ccccc2)[nH]n1`, for which the IC50 in assay [18] was > 100 µM (inactive); in assay [19], 2.35 µM (active).
`CC[n+]1cccc(-c2nc3ccccc3s2)c1`: the IC50 in [20] was 3.65 µM (active); in assay [21], 3.66 µM (active).
